The assay concerns the target T1, G1 APOL1 (Homo sapiens, UniProt O14791, I384M/S342G).
T1 construct: expressed in transfected cells
T1 sequence (O14791 28-398 S342G/I384M): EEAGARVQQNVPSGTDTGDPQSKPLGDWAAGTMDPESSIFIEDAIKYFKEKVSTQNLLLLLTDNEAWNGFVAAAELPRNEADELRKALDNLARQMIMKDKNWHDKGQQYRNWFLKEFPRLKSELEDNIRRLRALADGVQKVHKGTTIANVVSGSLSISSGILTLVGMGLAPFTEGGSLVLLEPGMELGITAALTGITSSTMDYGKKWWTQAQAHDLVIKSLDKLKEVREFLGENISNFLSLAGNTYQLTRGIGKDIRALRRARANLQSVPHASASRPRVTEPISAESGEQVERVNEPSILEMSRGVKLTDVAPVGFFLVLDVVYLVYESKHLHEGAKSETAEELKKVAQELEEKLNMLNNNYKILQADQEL
Description: Acute APOL1 Thallium Assay with inducible stable clones of HEK 293 cells. Particulars: read-out: Thallium Assay (IC50). It counts as cell-based. The procedure, abridged: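 Tetracycline-inducible HEK293 T-Rex clone G1 DC3.25 expressing G1 APOL1, plated at 26000 cells/well in Opti-MEM with tetracycline induction. APOL1 pore activity read on FLIPR as fluorescence increase from Tl+ influx into cells loaded with a Tl+-sensitive AM-ester dye.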

Where [1] appears, read: HEK 293 T-Rex cells expressing G1 APOL1.

Like-named read-outs stand apart in the source and are kept apart here.

In US12116343B2, “Inhibitors of APOL1 and methods of using same” (Vertex Pharmaceuticals Incorporated, priority 2020, dated 2024) one finds IC50 data, which are given here for 55 compounds.

By IC50 is commonly meant the midpoint of a concentration-inhibition curve.

`NC(=O)CNC1CC(c2c(-c3ccc(F)cc3)[nH]c3c(F)cc(F)cc23)C1` (stereo not shown) [Compound 288, 2-[[3-[5,7-difluoro-2-(4-fluorophenyl)-1H-indol-3-yl]cyclobutyl]amino]acetamide]: where the note is “Table 24, Compounds 287 to 465”, the IC50 was more than 1 µM. For `O=C(NCc1cnco1)C1CC(Cc2c(-c3ccc(F)cc3)[nH]c3c(F)cc(F)cc23)C1` (stereo not shown) [Compound 337], the 50% inhibitory concentration (IC50) (Table 24, Compounds 287 to 465) was more than 1 µM. Still for that read-out and setting: in the case of `O=C(NC1(CCO)CC1)C1CC(Cc2c(-c3ccc(F)cc3)[nH]c3c(F)cc(F)cc23)C1` (stereo not shown) [Compound 311] it was more than 1 µM.

Take `O=C(N[C@@H](CO)C(F)F)[C@H]1C[C@@H](c2c(-c3ccc(F)cc3)[nH]c3c(F)cc(F)cc32)C1` [Compound 276]: the IC50 under setting [1] fell in the range of 0.25 to 1 µM. With `C[C@@H](CO)NC(=O)[C@H]1C[C@H](c2c(-c3ccc(F)cc3)[nH]c3c(F)cc(F)cc32)C1` [Compound 27], the IC50 under setting [1] was less than 0.25 µM. Turning to `CC(NC(=O)C1CC(Cc2c(-c3ccc(F)cc3)[nH]c3c(F)cc(F)cc23)C1)c1ccn(C)n1` (mixture of isomers) [Compound 312], where the note is “Table 24, Compounds 287 to 465”, the 50% inhibitory concentration (IC50) is more than 1 µM. Consider `O=C(NC1(CO)CC1)C1(F)CC(c2c(-c3ccc(F)cc3)[nH]c3c(F)cc(F)cc23)C1` (stereo not shown) [Compound 285], for which the IC50 under setting [1] is less than 0.25 µM. With `CC(CO)NC(=O)O[C@H]1C[C@H](c2c(-c3ccc(F)cc3)[nH]c3c(F)cc(F)cc32)C1` (mixture of isomers) [Compound 356], under “Table 24, Compounds 287 to 465”, the IC50 was in the range of 0.25 to 1 µM.

For `O=C(NC(CO)CO)[C@H]1C[C@@H](c2c(-c3ccc(F)cc3)[nH]c3c(F)cc(F)cc32)C1` [Compound 241], the IC50 under setting [1] was more than 1 µM. Consider `O=C(NCC(O)C(F)F)C1CC(Cc2c(-c3ccc(F)cc3)[nH]c3c(F)cc(F)cc23)C1` (stereo not shown) [Compound 301], for which the IC50 (Table 24, Compounds 287 to 465) was more than 1 µM. As for `O=C(NC(CO)(CO)CO)[C@H]1C[C@@H](c2c(-c3ccc(F)cc3)[nH]c3c(F)cc(F)cc32)C1` [Compound 273], the IC50 under setting [1] is 0.25 to 1 µM. On to `CC1(O)CC(NC(=O)O[C@H]2C[C@H](c3c(-c4ccc(F)cc4)[nH]c4c(F)cc(F)cc43)C2)C1` (stereo partly shown) [Compound 361], for which the half-maximal inhibitory concentration (IC50) (Table 24, Compounds 287 to 465) was more than 1 µM.

Turning to `CNC(=O)NC[C@H]1C[C@H](c2c(-c3ccc(F)cc3)[nH]c3c(F)cc(F)cc32)C1` [Compound 391, 1-(((1r,3r)-3-(5,7-difluoro-2-(4-fluorophenyl)-1H-indol-3-yl)cyclobutyl)methyl)-3-methylurea], the IC50 (Table 24, Compounds 287 to 465) is 0.25 to 1 µM. Consider `O=C(N[C@H]1C[C@H](O)C1)[C@H]1C[C@@H](c2c(-c3ccc(F)cc3)[nH]c3c(F)cc(F)cc32)C1` [Compound 267], for which, under setting [1], the IC50 was more than 1 µM. On the same count and under the same terms, in the case of `O=C(CNC(=O)[C@H]1C[C@H](c2c(-c3ccc(F)cc3)[nH]c3c(F)cc(F)cc32)C1)NCCO` [Compound 231] it was more than 1 µM; in that of `O=C(CNC(=O)[C@H]1C[C@H](c2c(-c3ccc(F)cc3)[nH]c3c(F)cc(F)cc32)C1)NC[C@@H](O)C(F)(F)F` [Compound 233], more than 1 µM.

Take `CC(=O)NCCNC(=O)C1CC(Cc2c(-c3ccc(F)cc3)[nH]c3c(F)cc(F)cc23)C1` (stereo not shown) [Compound 320]: where the note is “Table 24, Compounds 287 to 465”, the IC50 is more than 1 µM. `NC(=O)CN[C@H]1C[C@H](c2c(-c3ccc(F)cc3)[nH]c3c(F)cc(F)cc32)C1` [Compound 294]: the IC50 (Table 24, Compounds 287 to 465) is more than 1 µM. On the same count and under the same terms, for `C[C@@H](O)[C@@H](CO)NC(=O)O[C@H]1C[C@H](c2c(-c3ccc(F)cc3)[nH]c3c(F)cc(F)cc32)C1` [Compound 372] the value was more than 1 µM; for `CN(C)C(=O)CNCC1CC(c2c(-c3ccc(F)cc3)[nH]c3c(F)cc(F)cc23)C1` (stereo not shown) [Compound 435], 0.25 to 1 µM. The same measure, in the same setting: in the case of `O=C(NCC1CC(F)(F)C1)C1CC(Cc2c(-c3ccc(F)cc3)[nH]c3c(F)cc(F)cc23)C1` (stereo not shown) [Compound 328] it was more than 1 µM. As for `C[C@@H](O)CNC(=O)O[C@H]1C[C@H](c2c(-c3ccc(F)cc3)[nH]c3c(F)cc(F)cc32)C1` [Compound 369], the IC50 (Table 24, Compounds 287 to 465) was more than 1 µM. On the same count and under the same terms, for `O=C(N[C@H]1CCOC1=O)C1CC(Cc2c(-c3ccc(F)cc3)[nH]c3c(F)cc(F)cc23)C1` (stereo partly shown) [Compound 305] the value was more than 1 µM. On the same count and under the same terms, in the case of `CC(O)(CO)CNC(=O)C1CC(Cc2c(-c3ccc(F)cc3)[nH]c3c(F)cc(F)cc23)C1` (stereo not shown) [Compound 324] it was more than 1 µM. On the same count and under the same terms, for `C[C@@H](O)CNC(=O)N(C)CC1CC(c2c(-c3ccc(F)cc3)[nH]c3c(F)cc(F)cc23)C1` (stereo partly shown) [Compound 429] the value was more than 1 µM; for `CN1CCN(C(=O)CNCC2CC(c3c(-c4ccc(F)cc4)[nH]c4c(F)cc(F)cc34)C2)CC1` (stereo not shown) [Compound 444], more than 1 µM. For the compound `CC1(O)CC(NC(=O)C2CC(Cc3c(-c4ccc(F)cc4)[nH]c4c(F)cc(F)cc34)C2)C1` (stereo not shown) [Compound 325], the concentration for half-maximal inhibition (IC50) (Table 24, Compounds 287 to 465) was more than 1 µM. On the same count and under the same terms, in the case of `O=C(NC[C@H]1C[C@H](c2c(-c3ccc(F)cc3)[nH]c3c(F)cc(F)cc32)C1)N[C@@H](CO)C(F)(F)F` [Compound 413] it was more than 1 µM. `O=C(NCC1CC(F)(F)C1)[C@H]1C[C@@H](c2c(-c3ccc(F)cc3)[nH]c3c(F)cc(F)cc32)C1` [Compound 266]: the IC50 under setting [1] is more than 1 µM. As for `CC(NC(=O)C1CC(Cc2c(-c3ccc(F)cc3)[nH]c3c(F)cc(F)cc23)C1)C1CCOC1` (mixture of isomers) [Compound 345], under “Table 24, Compounds 287 to 465”, the IC50 was more than 1 µM.

Consider `CC[C@@H](CO)NC(=O)NC[C@H]1C[C@H](c2c(-c3ccc(F)cc3)[nH]c3c(F)cc(F)cc32)C1` [Compound 421], for which the IC50 (Table 24, Compounds 287 to 465) was more than 1 µM. Same read-out and setting: for `C[C@]1(NC(=O)NC[C@H]2C[C@H](c3c(-c4ccc(F)cc4)[nH]c4c(F)cc(F)cc43)C2)C[C@@H](O)C1` [Compound 408] the value was more than 1 µM; for `CCC(O)CNC(=O)O[C@H]1C[C@H](c2c(-c3ccc(F)cc3)[nH]c3c(F)cc(F)cc32)C1` (stereo partly shown) [Compound 388], more than 1 µM. In the case of `COCCNC(=O)[C@H]1C[C@@H](c2c(-c3ccc(F)cc3)[nH]c3c(F)cc(F)cc32)C1` [Compound 242], under setting [1], the IC50 is more than 1 µM. On to `O=C(CNC[C@H]1C[C@H](c2c(-c3ccc(F)cc3)[nH]c3c(F)cc(F)cc32)C1)NCO` [Compound 448], for which, where the note is “Table 24, Compounds 287 to 465”, the IC50 was less than 0.25 µM.

Take `O=C(N[C@@H]1CCOC1)[C@H]1C[C@@H](c2c(-c3ccc(F)cc3)[nH]c3c(F)cc(F)cc32)C1` [Compound 269]: the IC50 under setting [1] is more than 1 µM.

In the case of `CC(C)(C)[C@H](CO)NC(=O)NC[C@H]1C[C@H](c2c(-c3ccc(F)cc3)[nH]c3c(F)cc(F)cc32)C1` [Compound 416], under “Table 24, Compounds 287 to 465”, the IC50 is more than 1 µM.

In the case of `O=C(CC1CC(c2c(-c3ccc(F)cc3)[nH]c3c(F)cc(F)cc23)C1)N[C@H]1CCNC1=O` (stereo partly shown) [Compound 456], the IC50 (Table 24, Compounds 287 to 465) was more than 1 µM.

In the case of `NC(=O)CCNC1CC(c2c(-c3ccc(F)cc3)[nH]c3c(F)cc(F)cc23)C1` (stereo not shown) [Compound 287, 3-[[3-[5,7-difluoro-2-(4-fluorophenyl)-1H-indol-3-yl]cyclobutyl]amino]propanamide], for the setting “Table 24, Compounds 287 to 465”, the IC50 is more than 1 µM. Same read-out and setting: in the case of `C[C@@H](O)CNC(=O)NC[C@H]1C[C@H](c2c(-c3ccc(F)cc3)[nH]c3c(F)cc(F)cc32)C1` [Compound 407] it was more than 1 µM; in that of `O=C(NCC1CCCO1)C1CC(Cc2c(-c3ccc(F)cc3)[nH]c3c(F)cc(F)cc23)C1` (stereo not shown) [Compound 321], more than 1 µM; in that of `CC(C)(O)CNC(=O)NC[C@H]1C[C@H](c2c(-c3ccc(F)cc3)[nH]c3c(F)cc(F)cc32)C1` [Compound 423], more than 1 µM.

As for `CO[C@H]1C[C@@H](NC(=O)O[C@H]2C[C@H](c3c(-c4ccc(F)cc4)[nH]c4c(F)cc(F)cc43)C2)C1` [Compound 390], the IC50 (Table 24, Compounds 287 to 465) was more than 1 µM.

Take `O=C(CC1CC(c2c(-c3ccc(F)cc3)[nH]c3c(F)cc(F)cc23)C1)NCCO` (stereo not shown) [Compound 459]: the IC50 (Table 24, Compounds 287 to 465) is more than 1 µM.

Regarding `C[C@H](O)CNC(=O)N(C)CC1CC(c2c(-c3ccc(F)cc3)[nH]c3c(F)cc(F)cc23)C1` (stereo partly shown) [Compound 430], the half-maximal inhibitory concentration (IC50) (Table 24, Compounds 287 to 465) was more than 1 µM.

For `C[C@H](O)CNC(=O)O[C@H]1C[C@H](c2c(-c3ccc(F)cc3)[nH]c3c(F)cc(F)cc32)C1` [Compound 365], the IC50 (Table 24, Compounds 287 to 465) is more than 1 µM. Same read-out and setting: in the case of `CC(O)C(C)NC(=O)O[C@H]1C[C@H](c2c(-c3ccc(F)cc3)[nH]c3c(F)cc(F)cc32)C1` (mixture of isomers) [Compound 363] it was more than 1 µM.

As to `O=C(NCCn1cccc1)[C@H]1C[C@@H](c2c(-c3ccc(F)cc3)[nH]c3c(F)cc(F)cc32)C1` [Compound 262], the IC50 under setting [1] is more than 1 µM. In the case of `COC[C@H](C)NC(=O)O[C@H]1C[C@H](c2c(-c3ccc(F)cc3)[nH]c3c(F)cc(F)cc32)C1` [Compound 364], the IC50 (Table 24, Compounds 287 to 465) is more than 1 µM. Still for that read-out and setting: for `CC1(NC(=O)NC[C@H]2C[C@H](c3c(-c4ccc(F)cc4)[nH]c4c(F)cc(F)cc43)C2)CCNC1=O` (mixture of isomers) [Compound 426] the value was more than 1 µM; for `CC(C)(NCC1CC(c2c(-c3ccc(F)cc3)[nH]c3c(F)cc(F)cc23)C1)C(N)=O` (stereo not shown) [Compound 440], more than 1 µM; for `CC1(CNC(=O)C2CC(Cc3c(-c4ccc(F)cc4)[nH]c4c(F)cc(F)cc34)C2)CCOC1` (mixture of isomers) [Compound 332], more than 1 µM. Still for that read-out and setting: for `O=C(NC(CO)CO)N[C@H]1C[C@H](c2c(-c3ccc(F)cc3)[nH]c3c(F)cc(F)cc32)C1` [Compound 298] the value was more than 1 µM; for `O=C(N[C@H](CO)C(F)(F)F)O[C@H]1C[C@H](c2c(-c3ccc(F)cc3)[nH]c3c(F)cc(F)cc32)C1` [Compound 362], more than 1 µM. On the same count and under the same terms, in the case of `O=C(NCc1ncc[nH]1)O[C@H]1C[C@H](c2c(-c3ccc(F)cc3)[nH]c3c(F)cc(F)cc32)C1` [Compound 373] it was more than 1 µM.
